Test results from ChEMBL document CHEMBL1151845, “Terpenoids from Toona ciliata” (2009).
In brackets after ≈: the same amount, converted by molar mass.

Columns and labels:
[1] = system: Staphylococcus epidermidis; experiment: Antibacterial activity against Staphylococcus epidermidis ATCC 12228 after 18 hrs; type: functional; settings: ATCC 12228, 18 h
[2] = system: Trichophyton rubrum; experiment: Antifungal activity against Trichophyton rubrum after 48 hrs; type: functional

Row | MIC [1] | MIC [2] | Compound
1 | 0.39 µg/mL (≈ 1.08 µM) |  | CC1COc2c(N3CCN(C)CC3)c(F)cc3c(=O)c(C(=O)O)cn1c23 (stereo not drawn) [OFLOXACIN]
2 |  | 1.56 µg/mL (≈ 1.69 µM) | C[C@@H]1[C@H](O)[C@@H](C)/C=C/C=C/C=C/C=C/C=C/C=C/C=C/[C@H](O[C@@H]2O[C@H](C)[C@@H](O)[C@H](N)[C@@H]2O)C[C@@H]2O[C@](O)(C[C@@H](O)C[C@@H](O)[C@H](O)CC[C@@H](O)C[C@@H](O)CC(=O)O[C@H]1C)C[C@H](O)[C@H]2C(=O)O [AMPHOTERICIN B]
3 |  | 12.5 µg/mL (≈ 39 µM) | C=C[C@@]1(C)CC[C@H]2[C@@](O)(CC[C@@H]3[C@]2(C)CCC[C@]3(C)C(=O)O)C1 [TOONACILIATIN M]
